{
  "source": "paper PMC9096814",
  "about": "(Biochemistry, 2022)",
  "key": {"Cathepsin V": {"molecular_target": "Cathepsin V (Homo sapiens, UniProt O60911)", "sequence (O60911 114-334)": "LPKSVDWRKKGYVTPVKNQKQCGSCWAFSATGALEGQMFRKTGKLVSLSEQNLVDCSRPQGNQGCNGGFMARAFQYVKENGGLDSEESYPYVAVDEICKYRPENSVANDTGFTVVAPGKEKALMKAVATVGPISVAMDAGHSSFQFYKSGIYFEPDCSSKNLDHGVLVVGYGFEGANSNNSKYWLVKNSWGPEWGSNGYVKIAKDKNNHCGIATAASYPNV", "assay": "Selectivity assay, cathepsin V", "type": "biochemical", "details": "for % inhibition: 16 μM inhibitor"}, "cathepsin B [1]": {"molecular_target": "T1, cathepsin B (Homo sapiens, UniProt P07858)", "assay": "Cathepsin B activity assay with Z-Phe-Arg-AMC, inhibition kinetics", "type": "biochemical", "details": "for KI (inactivation): read-out: KI, irreversible inhibitor kinetics"}, "Cathepsin S": {"molecular_target": "Cathepsin S (Homo sapiens, UniProt P25774)", "sequence (P25774 115-331)": "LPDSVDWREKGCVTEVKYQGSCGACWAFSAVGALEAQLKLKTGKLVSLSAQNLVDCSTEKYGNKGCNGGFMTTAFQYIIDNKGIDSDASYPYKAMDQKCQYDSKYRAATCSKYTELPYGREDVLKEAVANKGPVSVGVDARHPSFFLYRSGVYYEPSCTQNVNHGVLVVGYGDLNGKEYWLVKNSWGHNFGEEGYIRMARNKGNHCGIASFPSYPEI", "assay": "Selectivity assay, cathepsin S", "type": "biochemical", "details": "for % inhibition: 16 μM inhibitor"}, "cathepsin B [2]": {"molecular_target": "T1, cathepsin B", "assay": "Multiplex substrate profiling by mass spectrometry", "type": "biochemical", "details": "10 nM inhibitor, 30 min preincubation"}, "Cathepsin X": {"molecular_target": "Cathepsin X (Homo sapiens, UniProt Q9UBR2)", "sequence (Q9UBR2 62-303)": "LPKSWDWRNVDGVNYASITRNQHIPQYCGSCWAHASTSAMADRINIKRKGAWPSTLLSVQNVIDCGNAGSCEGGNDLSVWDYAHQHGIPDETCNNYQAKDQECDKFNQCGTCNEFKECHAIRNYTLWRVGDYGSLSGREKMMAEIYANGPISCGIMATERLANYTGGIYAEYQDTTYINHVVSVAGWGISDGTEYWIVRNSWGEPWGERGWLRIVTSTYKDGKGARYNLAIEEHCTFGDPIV", "assay": "Selectivity assay, cathepsin X", "type": "biochemical", "details": "for % inhibition: 16 μM inhibitor"}, "Cathepsin K": {"molecular_target": "T2, Cathepsin K (Homo sapiens, UniProt P43235)", "T2 sequence (P43235 115-329)": "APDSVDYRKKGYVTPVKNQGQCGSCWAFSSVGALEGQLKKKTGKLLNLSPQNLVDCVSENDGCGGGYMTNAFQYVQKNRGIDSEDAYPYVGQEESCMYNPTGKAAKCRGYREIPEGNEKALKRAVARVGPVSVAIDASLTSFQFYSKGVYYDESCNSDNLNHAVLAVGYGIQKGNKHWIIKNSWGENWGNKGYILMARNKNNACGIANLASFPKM", "assay": "Selectivity assay, cathepsin K", "type": "biochemical", "details": "for % inhibition: 16 μM inhibitor"}, "cathepsin B [3]": {"molecular_target": "T1, cathepsin B", "assay": "Irreversible inhibition mechanism by dilution experiments", "type": "biochemical", "details": "pH 4.6, pH 5.5, and pH 7.2; preincubation at 10 times the IC50, diluted 100-fold, Z-F-R-AMC added"}, "Cathepsin C": {"molecular_target": "Cathepsin C (Homo sapiens, UniProt P53634)", "sequence (P53634 25-134 limits assumed)": "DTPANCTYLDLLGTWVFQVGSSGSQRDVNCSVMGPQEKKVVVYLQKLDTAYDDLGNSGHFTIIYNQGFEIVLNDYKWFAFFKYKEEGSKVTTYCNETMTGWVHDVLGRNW", "sequence (P53634 231-394 limits assumed)": "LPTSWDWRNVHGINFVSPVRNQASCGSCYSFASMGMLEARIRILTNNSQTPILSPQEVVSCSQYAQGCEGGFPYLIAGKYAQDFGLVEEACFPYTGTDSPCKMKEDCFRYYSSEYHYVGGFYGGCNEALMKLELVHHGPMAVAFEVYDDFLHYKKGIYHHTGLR", "sequence (P53634 395-463 limits assumed)": "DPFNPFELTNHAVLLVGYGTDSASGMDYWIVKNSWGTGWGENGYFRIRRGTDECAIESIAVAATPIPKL", "assay": "Selectivity assay, cathepsin C", "type": "biochemical", "details": "for % inhibition: 16 μM inhibitor"}, "Cathepsin H": {"molecular_target": "Cathepsin H (Homo sapiens, UniProt P09668)", "sequence (P09668 116-335 limits assumed, other chains not shown)": "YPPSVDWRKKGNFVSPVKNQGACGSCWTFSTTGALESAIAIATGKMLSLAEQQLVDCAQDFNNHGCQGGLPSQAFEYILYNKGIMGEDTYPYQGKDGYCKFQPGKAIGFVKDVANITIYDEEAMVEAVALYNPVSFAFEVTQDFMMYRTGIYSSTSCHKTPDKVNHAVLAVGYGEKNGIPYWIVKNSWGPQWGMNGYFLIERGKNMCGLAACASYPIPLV", "assay": "Selectivity assay, cathepsin H", "type": "biochemical", "details": "for % inhibition: 16 μM inhibitor"}, "Cathepsin L": {"molecular_target": "Cathepsin L (Homo sapiens, UniProt P07711)", "sequence (P07711 114-333)": "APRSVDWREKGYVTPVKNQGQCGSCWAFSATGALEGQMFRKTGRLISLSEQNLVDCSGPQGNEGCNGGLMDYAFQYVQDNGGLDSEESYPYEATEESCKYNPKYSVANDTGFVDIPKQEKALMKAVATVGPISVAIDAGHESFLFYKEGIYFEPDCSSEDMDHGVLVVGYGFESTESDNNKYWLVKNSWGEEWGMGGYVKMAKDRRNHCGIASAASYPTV", "assay": "Selectivity assay, cathepsin L", "type": "biochemical", "details": "for % inhibition: 16 μM inhibitor"}, "cathepsin B [4]": {"tested_on": "cathepsin B", "details": "ref [44]; cited from earlier work"}},
  "note": "Read-outs that look alike come from different tables or passages of the source.",
  "data": [
    {"smiles": "CCCNC(=O)[C@H]1O[C@@H]1C(=O)N[C@H](C(=O)N1CCC[C@H]1C(=O)O)[C@@H](C)CC", "note": "(relative stereo) [CA-074, N-(L-3-trans-propylcarbamoyloxirane-2-carbonyl)-L-isoleucyl-L-proline]", "values": [
      {"measurement": "IC50", "setting": "Cathepsin V; pH 4.6", "value": "> 16", "unit": "µM"},
      {"measurement": "% inhibition", "setting": "Cathepsin V; pH 4.6, 16 µM", "value": 10, "unit": "%"},
      {"measurement": "IC50", "setting": "Cathepsin V; pH 5.5", "value": "> 16", "unit": "µM"},
      {"measurement": "IC50", "setting": "Cathepsin V; pH 7.2", "value": "> 16", "unit": "µM"},
      {"measurement": "effect on cathepsin B cleavage of Z-Phe-Arg-AMC substrate", "setting": "cathepsin B [1]; 10 nM inhibitor, pH 7.2", "value": "no effect"},
      {"measurement": "IC50", "setting": "Cathepsin S; pH 4.6", "value": "> 16", "unit": "µM"},
      {"measurement": "IC50", "setting": "Cathepsin S; pH 5.5", "value": 4.8, "unit": "µM"},
      {"measurement": "IC50", "setting": "Cathepsin S; pH 7.2", "value": "> 16", "unit": "µM"},
      {"measurement": "% inhibition", "setting": "Cathepsin S; pH 7.2", "value": 29, "unit": "%"},
      {"measurement": "effect on cathepsin B cleavages of peptide library substrates (MSP-MS)", "setting": "cathepsin B [2]; pH 4.6", "value": "blocked"},
      {"measurement": "effect on cathepsin B cleavages of peptide library substrates (MSP-MS)", "setting": "cathepsin B [2]; pH 7.2", "value": "no effect"},
      {"measurement": "IC50", "setting": "Cathepsin X; pH 4.6", "value": "> 16", "unit": "µM"},
      {"measurement": "% inhibition", "setting": "Cathepsin X; pH 4.6, 16 µM", "value": 5, "unit": "%"},
      {"measurement": "IC50", "setting": "Cathepsin X; pH 5.5", "value": "> 16", "unit": "µM"},
      {"measurement": "IC50", "setting": "Cathepsin K; pH 4.6", "value": "> 16", "unit": "µM"},
      {"measurement": "% inhibition", "setting": "Cathepsin K; pH 4.6, 16 µM", "value": 8, "unit": "%"},
      {"measurement": "IC50", "setting": "Cathepsin K; pH 5.5", "value": "> 16", "unit": "µM"},
      {"measurement": "IC50", "setting": "Cathepsin K; pH 7.2", "value": "> 16", "unit": "µM"},
      {"measurement": "irreversible or reversible inhibition of cathepsin B", "setting": "cathepsin B [3]", "value": "irreversible"},
      {"measurement": "IC50", "setting": "Cathepsin C; pH 4.6", "value": "> 16", "unit": "µM"},
      {"measurement": "IC50", "setting": "Cathepsin C; pH 5.5", "value": "> 16", "unit": "µM"},
      {"measurement": "IC50", "setting": "Cathepsin C; pH 7.2", "value": "> 16", "unit": "µM"}
    ]},
    {"smiles": "CCCNC(=O)[C@H]1O[C@@H]1C(=O)N[C@H](C(=O)N1CCC[C@H]1C(=O)OC)[C@@H](C)CC", "note": "[CA-074Me]", "values": [
      {"measurement": "IC50", "setting": "Cathepsin V; pH 5.5", "value": "> 16", "unit": "µM"},
      {"measurement": "% inhibition", "setting": "Cathepsin V; pH 5.5", "value": 22, "unit": "%"},
      {"measurement": "IC50", "setting": "Cathepsin V; pH 7.2", "value": "> 16", "unit": "µM"},
      {"measurement": "% inhibition", "setting": "Cathepsin V; pH 7.2", "value": 0, "unit": "%"},
      {"measurement": "IC50", "setting": "cathepsin B [1]; pH 4.6", "value": 8.9, "unit": "µM"},
      {"measurement": "fold less potent than CA-074 (IC50)", "setting": "cathepsin B [1]; pH 4.6", "value": 1495, "unit": "fold"},
      {"measurement": "kinact", "setting": "cathepsin B [1]; pH 4.6", "value": 0.016, "unit": "s⁻¹"},
      {"measurement": "kinact/KI", "setting": "cathepsin B [1]; pH 4.6", "value": 310, "unit": "M⁻¹ s⁻¹"},
      {"measurement": "IC50", "setting": "cathepsin B [1]; pH 4.6, Z-Phe-Arg-AMC substrate, no preincubation", "value": 8.97, "unit": "µM"},
      {"measurement": "fold less potent than CA-074 (IC50)", "setting": "cathepsin B [1]; pH 5.5", "value": 311, "unit": "fold"},
      {"measurement": "kinact", "setting": "cathepsin B [1]; pH 5.5", "value": 0.014, "unit": "s⁻¹"},
      {"measurement": "kinact/KI", "setting": "cathepsin B [1]; pH 5.5", "value": 250, "unit": "M⁻¹ s⁻¹"},
      {"measurement": "potency (KI) compared to CA-074", "setting": "cathepsin B [1]; pH 5.5", "value": "1/265"},
      {"measurement": "IC50", "setting": "cathepsin B [1]; pH 5.5, Z-Phe-Arg-AMC substrate, no preincubation", "value": 13.7, "unit": "µM"},
      {"measurement": "IC50", "setting": "cathepsin B [1]; pH 7.2", "value": 7.6, "unit": "µM"},
      {"measurement": "fold less potent than CA-074 (IC50)", "setting": "cathepsin B [1]; pH 7.2", "value": 10, "unit": "fold"},
      {"measurement": "kinact", "setting": "cathepsin B [1]; pH 7.2", "value": 0.014, "unit": "s⁻¹"},
      {"measurement": "kinact/KI", "setting": "cathepsin B [1]; pH 7.2", "value": 480, "unit": "M⁻¹ s⁻¹"},
      {"measurement": "potency (KI) compared to CA-074", "setting": "cathepsin B [1]; pH 7.2", "value": "1/15"},
      {"measurement": "IC50", "setting": "cathepsin B [1]; pH 7.2, Z-Phe-Arg-AMC substrate, no preincubation", "value": 7.56, "unit": "µM"},
      {"measurement": "KI (inactivation)", "setting": "cathepsin B [1]; pH 4.6", "value": 52, "unit": "µM"},
      {"measurement": "KI (inactivation)", "setting": "cathepsin B [1]; pH 5.5", "value": 56, "unit": "µM"},
      {"measurement": "KI (inactivation)", "setting": "cathepsin B [1]; pH 7.2", "value": 29, "unit": "µM"},
      {"measurement": "IC50", "setting": "Cathepsin H; pH 4.6", "value": "> 16", "unit": "µM"},
      {"measurement": "% inhibition", "setting": "Cathepsin H; pH 4.6", "value": 0, "unit": "%"},
      {"measurement": "IC50", "setting": "Cathepsin H; pH 5.5", "value": "> 16", "unit": "µM"},
      {"measurement": "% inhibition", "setting": "Cathepsin H; pH 5.5", "value": 0, "unit": "%"},
      {"measurement": "IC50", "setting": "Cathepsin H; pH 7.2", "value": "> 16", "unit": "µM"},
      {"measurement": "% inhibition", "setting": "Cathepsin H; pH 7.2", "value": 19, "unit": "%"},
      {"measurement": "IC50", "setting": "Cathepsin S; pH 4.6", "value": "> 16", "unit": "µM"},
      {"measurement": "% inhibition", "setting": "Cathepsin S; pH 4.6", "value": 22, "unit": "%"},
      {"measurement": "IC50", "setting": "Cathepsin S; pH 5.5", "value": 5.5, "unit": "µM"},
      {"measurement": "IC50", "setting": "Cathepsin S; pH 7.2", "value": 3.8, "unit": "µM"},
      {"measurement": "IC50", "setting": "Cathepsin X; pH 4.6", "value": "> 16", "unit": "µM"},
      {"measurement": "% inhibition", "setting": "Cathepsin X; pH 4.6", "value": 0, "unit": "%"},
      {"measurement": "IC50", "setting": "Cathepsin X; pH 5.5", "value": "> 16", "unit": "µM"},
      {"measurement": "% inhibition", "setting": "Cathepsin X; pH 5.5", "value": 0, "unit": "%"},
      {"measurement": "IC50", "setting": "Cathepsin K; pH 4.6", "value": "> 16", "unit": "µM"},
      {"measurement": "% inhibition", "setting": "Cathepsin K; pH 4.6", "value": 0, "unit": "%"},
      {"measurement": "IC50", "setting": "Cathepsin K; pH 5.5", "value": "> 16", "unit": "µM"},
      {"measurement": "% inhibition", "setting": "Cathepsin K; pH 5.5", "value": 0, "unit": "%"},
      {"measurement": "IC50", "setting": "Cathepsin K; pH 7.2", "value": "> 16", "unit": "µM"},
      {"measurement": "% inhibition", "setting": "Cathepsin K; pH 7.2", "value": 16, "unit": "%"},
      {"measurement": "IC50", "setting": "Cathepsin L; pH 4.6", "value": "> 16", "unit": "µM"},
      {"measurement": "% inhibition", "setting": "Cathepsin L; pH 4.6", "value": 0, "unit": "%"},
      {"measurement": "IC50", "setting": "Cathepsin L; pH 5.5", "value": "> 16", "unit": "µM"},
      {"measurement": "% inhibition", "setting": "Cathepsin L; pH 5.5", "value": 0, "unit": "%"},
      {"measurement": "irreversible or reversible inhibition of cathepsin B", "setting": "cathepsin B [3]", "value": "irreversible inhibition"},
      {"measurement": "IC50", "setting": "Cathepsin C; pH 4.6", "value": "> 16", "unit": "µM"},
      {"measurement": "% inhibition", "setting": "Cathepsin C; pH 4.6", "value": 5, "unit": "%"},
      {"measurement": "IC50", "setting": "Cathepsin C; pH 5.5", "value": "> 16", "unit": "µM"},
      {"measurement": "% inhibition", "setting": "Cathepsin C; pH 5.5", "value": 0, "unit": "%"},
      {"measurement": "IC50", "setting": "Cathepsin C; pH 7.2", "value": "> 16", "unit": "µM"},
      {"measurement": "% inhibition", "setting": "Cathepsin C; pH 7.2", "value": 4, "unit": "%"}
    ]},
    {"smiles": "Cc1cccc(C)c1C(=O)OCC(=O)[C@H](CCCCN)NC(=O)[C@H](CCCN=C(N)N)NC(=O)OCc1ccccc1", "note": "[Z-Arg-Lys-AOMK]", "values": [
      {"measurement": "fold selective at inhibiting cathepsin B at pH 7.4 over pH 4.6", "setting": "cathepsin B [4]", "value": "> 100", "unit": "fold"}
    ]}
  ]
}
